# Measured values published in ChEMBL document CHEMBL1201862, “PubChem BioAssay data set” (2004).
#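 Growth conditions: 96-well plates. Treatment: test compound, 48 hours, 5 concentrations. Analysis: linear interpolation between bracketing concentrations; unreached endpoints set to highest concentration. GI50 = concentration required for 50% inhibition of growth.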 Activity calls are given as the source filed them. No stated cut-off is given here; in the data, active = GI50 up to about 1.1 µM and inactive = higher.
# What was measured:
# Experiment in all cases: NCI-60 cell line screen, 48 h
# NCI-H460 = system: NCI-H460
# SNB-75 = system: SNB-75
# SF-539 = system: SF-539
# UACC-62 = system: UACC-62
# SK-MEL-2 = system: SK-MEL-2
# OVCAR-3 = system: OVCAR-3
# MDA-MB-435 = system: MDA-MB-435
# IGROV-1 = system: IGROV-1
# OVCAR-8 = system: OVCAR-8
# SF-268 = system: SF-268
# MDA-N = system: MDA-N
# UACC-257 = system: UACC-257
# SR = system: SR
# NCI/ADR-RES = system: NCI/ADR-RES
# DU-145 = system: DU-145
# PC-3 = system: PC-3
# EKVX = system: EKVX
# 786-0 = system: 786-0
# MDA-MB-231 = system: MDA-MB-231
# A498 = system: A498
# SK-MEL-28 = system: SK-MEL-28
# CAKI-1 = system: CAKI-1
# NCI-H23 = system: NCI-H23
# SK-MEL-5 = system: SK-MEL-5
# HCT-15 = system: HCT-15
# LOX IMVI = system: LOX IMVI
# MCF7 = system: MCF7
# OVCAR-5 = system: OVCAR-5
# RPMI-8226 = system: RPMI-8226
# NCI-H226 = system: NCI-H226
# SN12C = system: SN12C
# HCT-116 = system: HCT-116
# HL-60 = system: HL-60
# K562 = system: K562
# BT-549 = system: BT-549
# HT-29 = system: HT-29
# ACHN = system: ACHN
# SF-295 = system: SF-295
# Hs-578T = system: Hs-578T
# SW-620 = system: SW-620
# RXF 393 = system: RXF 393
# M14 = system: M14
# SK-OV-3 = system: SK-OV-3
# UO-31 = system: UO-31
# CCRF-CEM = system: CCRF-CEM
# SNB-19 = system: SNB-19
# KM12 = system: KM12
# NCI-H522 = system: NCI-H522
# Malme-3M = system: Malme-3M
# U-251 = system: U-251
# COLO 205 = system: COLO 205
# T47D = system: T47D
# HOP-92 = system: HOP-92
# A549 = system: A549
# OVCAR-4 = system: OVCAR-4
# MOLT-4 = system: MOLT-4
# HOP-62 = system: HOP-62
# HCC 2998 = system: HCC 2998
# TK-10 = system: TK-10
structure (smiles),measurement,setting,value
CC(=O)Nc1c(C)cc2c(nc3n2CCC3OC(C)=O)c1[N+](=O)[O-] (centres undefined),GI50,NCI-H460,> 100 µM (inactive)
same,GI50,SNB-75,> 100 µM (inactive)
same,GI50,SF-539,> 100 µM (inactive)
same,GI50,UACC-62,> 100 µM (inactive)
same,GI50,SK-MEL-2,> 100 µM (inactive)
same,GI50,OVCAR-3,> 100 µM (inactive)
same,GI50,MDA-MB-435,> 100 µM (inactive)
same,GI50,IGROV-1,> 100 µM (inactive)
same,GI50,OVCAR-8,> 100 µM (inactive)
same,GI50,SF-268,> 100 µM (inactive)
same,GI50,MDA-N,> 100 µM (inactive)
same,GI50,UACC-257,> 100 µM (inactive)
same,GI50,SR,> 100 µM (inactive)
same,GI50,NCI/ADR-RES,> 100 µM (inactive)
same,GI50,DU-145,> 100 µM (inactive)
same,GI50,PC-3,> 100 µM (inactive)
same,GI50,EKVX,> 100 µM (inactive)
same,GI50,786-0,> 100 µM (inactive)
same,GI50,MDA-MB-231,> 100 µM (inactive)
same,GI50,A498,> 100 µM (inactive)
same,GI50,SK-MEL-28,> 100 µM (inactive)
same,GI50,CAKI-1,> 100 µM (inactive)
same,GI50,NCI-H23,> 100 µM (inactive)
same,GI50,SK-MEL-5,> 100 µM (inactive)
same,GI50,HCT-15,> 100 µM
same,GI50,LOX IMVI,> 100 µM (inactive)
same,GI50,MCF7,> 100 µM (inactive)
same,GI50,OVCAR-5,> 100 µM (inactive)
same,GI50,RPMI-8226,> 100 µM (inactive)
same,GI50,NCI-H226,> 100 µM (inactive)
same,GI50,SN12C,> 100 µM (inactive)
same,GI50,HCT-116,> 100 µM (inactive)
same,GI50,HL-60,> 100 µM (inactive)
same,GI50,K562,> 100 µM (inactive)
same,GI50,BT-549,> 100 µM (inactive)
same,GI50,HT-29,> 100 µM (inactive)
same,GI50,ACHN,> 100 µM (inactive)
same,GI50,SF-295,> 100 µM (inactive)
same,GI50,Hs-578T,> 100 µM (inactive)
same,GI50,SW-620,> 100 µM (inactive)
same,GI50,RXF 393,7.98 µM (inactive)
same,GI50,M14,> 100 µM (inactive)
same,GI50,SK-OV-3,> 100 µM (inactive)
same,GI50,UO-31,> 100 µM (inactive)
same,GI50,CCRF-CEM,> 100 µM (inactive)
same,GI50,SNB-19,> 100 µM (inactive)
same,GI50,KM12,> 100 µM (inactive)
same,GI50,NCI-H522,> 100 µM (inactive)
same,GI50,Malme-3M,> 100 µM (inactive)
same,GI50,U-251,> 100 µM (inactive)
same,GI50,COLO 205,> 100 µM (inactive)
same,GI50,T47D,> 100 µM (inactive)
same,GI50,HOP-92,> 100 µM (inactive)
same,GI50,A549,> 100 µM (inactive)
same,GI50,OVCAR-4,> 100 µM (inactive)
same,GI50,MOLT-4,> 100 µM (inactive)
CN1CCC[N+](C)=C1c1ccccc1,GI50,NCI-H460,> 100 µM (inactive)
same,GI50,SNB-75,> 100 µM (inactive)
same,GI50,SF-539,> 100 µM (inactive)
same,GI50,SK-MEL-2,> 100 µM (inactive)
same,GI50,OVCAR-3,> 100 µM (inactive)
same,GI50,MDA-MB-435,> 100 µM (inactive)
same,GI50,IGROV-1,> 100 µM (inactive)
same,GI50,OVCAR-8,> 100 µM (inactive)
same,GI50,SF-268,> 100 µM (inactive)
same,GI50,MDA-N,> 100 µM (inactive)
same,GI50,UACC-257,> 100 µM (inactive)
same,GI50,SR,> 100 µM (inactive)
same,GI50,NCI/ADR-RES,> 100 µM (inactive)
same,GI50,DU-145,> 100 µM (inactive)
same,GI50,PC-3,> 100 µM (inactive)
same,GI50,EKVX,> 100 µM (inactive)
same,GI50,786-0,> 100 µM (inactive)
same,GI50,MDA-MB-231,> 100 µM (inactive)
same,GI50,A498,37.2 µM (inactive)
same,GI50,SK-MEL-28,> 100 µM (inactive)
same,GI50,CAKI-1,> 100 µM (inactive)
same,GI50,NCI-H23,> 100 µM (inactive)
same,GI50,SK-MEL-5,> 100 µM (inactive)
same,GI50,HCT-15,> 100 µM
same,GI50,LOX IMVI,> 100 µM (inactive)
same,GI50,MCF7,> 100 µM (inactive)
same,GI50,OVCAR-5,> 100 µM (inactive)
same,GI50,RPMI-8226,> 100 µM (inactive)
same,GI50,NCI-H226,> 100 µM (inactive)
same,GI50,SN12C,> 100 µM (inactive)
same,GI50,HCT-116,> 100 µM (inactive)
same,GI50,HL-60,> 100 µM (inactive)
same,GI50,K562,> 100 µM (inactive)
same,GI50,BT-549,> 100 µM (inactive)
same,GI50,HT-29,> 100 µM (inactive)
same,GI50,ACHN,> 100 µM (inactive)
same,GI50,SF-295,> 100 µM (inactive)
same,GI50,Hs-578T,> 100 µM (inactive)
same,GI50,HOP-62,> 100 µM (inactive)
same,GI50,SW-620,> 100 µM (inactive)
same,GI50,RXF 393,> 100 µM (inactive)
same,GI50,M14,> 100 µM (inactive)
same,GI50,SK-OV-3,> 100 µM (inactive)
same,GI50,UO-31,> 100 µM (inactive)
same,GI50,CCRF-CEM,> 100 µM (inactive)
same,GI50,SNB-19,> 100 µM (inactive)
same,GI50,HCC 2998,> 100 µM (inactive)
same,GI50,KM12,> 100 µM (inactive)
same,GI50,NCI-H522,> 100 µM (inactive)
same,GI50,Malme-3M,> 100 µM (inactive)
same,GI50,U-251,> 100 µM (inactive)
same,GI50,TK-10,> 100 µM (inactive)
same,GI50,COLO 205,> 100 µM (inactive)
same,GI50,T47D,> 100 µM (inactive)
same,GI50,HOP-92,> 100 µM (inactive)
same,GI50,A549,> 100 µM (inactive)
same,GI50,OVCAR-4,> 100 µM (inactive)
same,GI50,MOLT-4,> 100 µM (inactive)
